Consider eleven compounds from patent publication US20260035384A1, “COMPOUND CONTAINING CYCLOHEXYL” (CHIA TAI TIANQING PHARMACEUTICAL GROUP CO., LTD., priority 2022, published 2026).

One data set has as its target T1, AR in LNCaP cells (Homo sapiens, UniProt P10275, T878A).
T1 construct: Assay on Degradation Activity for AR in LNCaP Cells; endogenous in cells; host or cells: LNCaP cells
T1 sequence (P10275 1-920 T878A): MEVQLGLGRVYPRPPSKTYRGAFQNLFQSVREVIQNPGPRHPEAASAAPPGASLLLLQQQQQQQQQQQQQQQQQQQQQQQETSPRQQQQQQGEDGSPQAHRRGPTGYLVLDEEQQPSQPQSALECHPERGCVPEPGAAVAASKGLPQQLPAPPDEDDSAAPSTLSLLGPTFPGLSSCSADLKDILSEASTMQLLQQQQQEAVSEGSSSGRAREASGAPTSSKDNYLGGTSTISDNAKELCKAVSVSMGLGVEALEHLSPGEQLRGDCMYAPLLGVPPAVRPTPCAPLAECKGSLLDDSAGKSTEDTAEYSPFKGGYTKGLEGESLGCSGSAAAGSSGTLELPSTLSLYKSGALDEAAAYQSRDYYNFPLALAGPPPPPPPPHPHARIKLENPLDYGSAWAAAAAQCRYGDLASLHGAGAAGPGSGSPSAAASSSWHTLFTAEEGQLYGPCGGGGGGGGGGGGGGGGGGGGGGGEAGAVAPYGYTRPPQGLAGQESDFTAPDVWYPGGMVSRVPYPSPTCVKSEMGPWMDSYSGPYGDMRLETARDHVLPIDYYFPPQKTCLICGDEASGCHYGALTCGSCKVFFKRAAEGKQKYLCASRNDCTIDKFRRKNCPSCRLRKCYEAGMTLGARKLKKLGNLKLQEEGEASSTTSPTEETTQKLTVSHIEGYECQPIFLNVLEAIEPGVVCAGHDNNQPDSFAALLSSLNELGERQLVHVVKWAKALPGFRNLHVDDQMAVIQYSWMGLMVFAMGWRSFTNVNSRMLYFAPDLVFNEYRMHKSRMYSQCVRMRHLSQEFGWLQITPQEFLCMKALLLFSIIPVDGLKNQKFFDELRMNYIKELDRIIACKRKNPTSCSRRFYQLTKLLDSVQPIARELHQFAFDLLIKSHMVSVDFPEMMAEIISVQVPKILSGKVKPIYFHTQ
Kind of data set: Assay on degradation activity for AR in LNCaP cells (HTRF human androgen receptor detection kit). Type of data set: cell-based. The conditions noted are these: 24 h incubation; for DC50: HTRF; for Dmax: maximum degradation rate. As for the experimental part: (§1) The detection was carried out using the HTRF HUMAN ANDROGEN RECEPTOR DETECTION KIT (cisbio, 64ANDRPEG), 4× Supplemented Lysis buffer was prepared using the Blocking reagent stock solution (100×) and Lysis buffer stock solution (4×), and 1× Supplemented Lysis buffer was prepared using the 4× Supplemented Lysis buffer and ddH2O. Premixed antibody solutions were prepared using Detection buffer, Androgen Receptor Eu Cryptate antibody, and Androgen Receptor d2 antibody.
(§2) LNCaP cells in a good growth state were taken, washed with PBS, digested with pancreatin, and added with 2% CSS—FBS phenol red-free 1640 complete medium to terminate the digestion. The cells were collected by using a centrifuge tube, adjusted to a cell density of 1×10^6 cells/mL, and seeded in a 96-well plate (100 μL/well). The cells were incubated overnight in a cell incubator. Compounds were added using a nanoliter pipettor such that the final concentrations of the compounds were 500 nM-0.488 nM. Two duplicate wells were set for each concentration, and meanwhile, a control was set. After another 24 h of incubation in the cell incubator, the medium was pipetted out, the 1× Supplemented Lysis buffer was added at 40 μL/well to lyse the cells. After the cells were oscillated for 40 min at room temperature, 16 μL of the cell lysate was added to a 384-well plate, the Premixed antibody solutions were added at 4 μL/well, and the mixture was left to stand at 25° C. for 2 h. Fluorescence values were detected at 665 nm/620 nm using an Envision microplate reader, the four-parameter analysis was performed, the dose-response curves were fit, and DC50 (the concentration of the drug when the degradation rate reaches 50%) and Dmax (the maximum degradation rate) were calculated.
For orientation: Time-resolved FRET reads energy transfer from a long-lived donor to a nearby acceptor.

For another data set, the system named is LNCaP cells. Kind of data set: Assay on inhibitory activity for LNCaP cell proliferation (CCK-8). Particulars: Homo sapiens, 168 h incubation. The class given is cell-based. As for the experimental part:
(§3) LNCaP cells in a good growth state were taken, washed with PBS, digested with pancreatin, and added with 2% CSS—FBS phenol red-free 1640 complete medium to terminate the digestion. The cells were collected by using a centrifuge tube, adjusted to a cell density of 1×10^5 cells/mL, and seeded in a 96-well plate (100 μL/well). Meanwhile, compounds were added using a nanoliter pipettor such that the final concentrations of the compounds were 10000 nM-0.61 nM. Two duplicate wells were set for each concentration, and meanwhile, a control was set. After another 168 h of incubation in the cell incubator, the detection reagent CCK-8 (manufacturer: Dojindo, 10 μL/well) was added.

The nature of a further data set: Mouse pharmacokinetics. The class given is in vivo, ICR mice. Particulars: ICR, mouse, plasma; for AUC: read-out: AUC. As for the experimental part:
ICR mice weighing 18-22 g were randomized into groups of 9 after 3-5 days of acclimatization, and then intragastrically given the test compound solution at a dose of 10 mg/kg and intravenously injected with the test compound solution at a dose of 1 mg/kg.
Blood sampling time points for the intragastrical administration group were 15 min, 0.5 h, 1 h, 2 h, 3 h, 4 h, 6 h, 8 h, 10 h, and 24 h, and blood sampling time points for the intravenous injection administration group were […], 15 min, 0.5 h, 1 h, 2 h, 4 h, 6 h, 8 h, 10 h, and 24 h; blood was collected from the orbit to prepare plasma samples to be tested. 30 μL of each of the plasma samples to be tested and a standard curve sample were taken, and an acetonitrile solution containing an internal standard was added. Supernatants were obtained by protein precipitation, diluted, and then assayed by LC/MS/MS. Pharmacokinetic parameters were fitted using a non-compartmental model (see Table 6).

For another data set, the system named is VCaP cells. Kind of data set: Assay on inhibitory activity for VCaP cell proliferation (CCK-8). Type of data set: cell-based. Particulars: Homo sapiens, 168 h incubation. The procedure: as §3, with “2.1 Assay on inhibitory activity for VCaP cell proliferation VCaP” for “LNCaP”, “5%” for “2%”, “DMEM” for “1640”
Another data set addresses T2, AR in VCaP cells (Homo sapiens, UniProt P10275).
T2 construct: Assay on Degradation Activity for AR in VCaP Cells; endogenous in cells; host or cells: VCaP cells
T2 sequence (P10275 1-920): T1 sequence (P10275 1-920 T878A) with A878T
The data set can be described thus: Assay on degradation activity for AR in VCaP cells (HTRF human androgen receptor detection kit). Particulars: 24 h incubation. Type of data set: cell-based. The procedure: as §1
as §2, with “VCaP” for “LNCaP”, “DMEM” for “1640”, “µL/well).” for “μL/well).”, “1000 nM-0.977” for “500 nM-0.488”

[1] abbreviates: po, 10 mg/kg, Mouse i.g. 10 mpk.

Numbering of substitutions follows the chain as printed. Read-outs that look alike come from different tables or passages of the source.

A word on the DC50: it is the concentration giving 50% degradation. A word on the Dmax: it is the largest share of the target that was removed. Usually IC50 stands for the concentration that gives 50% inhibition. High values mean weaker potency in that assay, low ones greater potency in that assay. As a reminder, the clearance is the volume of plasma or blood freed of the substance per unit of time. The low end stands for a low capacity for elimination, the high end for a high capacity for elimination. Broadly, the half-life is the time needed for the level to fall by half in the phase considered. Higher therefore signals slow loss. A word on the AUC: it is concentration integrated over time. Usually bioavailability stands for the share of a dose that reaches the circulation, judged against a reference dose that is usually intravenous. Low values mean poor availability, high ones good availability. Usually Cmax stands for the peak of the concentration-time curve. On to `N#Cc1ccc(O[C@H]2CC[C@H](NC(=O)c3ccc(N4CCC(CN5CCc6c(ccc7c(C8CCC(=O)NC8=O)noc67)C5)CC4)nn3)CC2)cc1Cl` (stereo partly drawn) [Compound 19], for which, on AR in LNCaP cells, the DC50 is ≤ 0.02 µM and the Dmax was > 80%. Further, in the data set with LNCaP cells, the IC50 was < 1 µM. Moreover, in “Mouse pharmacokinetics” (iv, 1 mg/kg, Mouse i.v. 1 mpk), the clearance is 0.342 L/h/kg, the half-life was 7.4 h and the AUC is 2.6 µg·h/mL. Moreover, in “Mouse pharmacokinetics” (setting [1]), the half-life is 49.9 h and the AUC came to 10.8 µg·h/mL. Also, the bioavailability in “Mouse pharmacokinetics” (po, 10 mg/kg, Mouse i.g. 10 mpk vs i.v. 1 mpk) stood at 41.6%. Moreover, in “Mouse pharmacokinetics” (po, 10 mg/kg, Mouse i.g. 10 mpk, read-out: Cmax), the highest concentration (Cmax) was found to be 0.562 µg/mL.
As to `N#Cc1ccc(O[C@H]2CC[C@H](NC(=O)c3ccc(N4CCC(CN5CCc6ccc7c(C8CCC(=O)NC8=O)noc7c6CC5)CC4)nn3)CC2)cc1Cl` (stereo partly drawn) [Compound 20], on AR in LNCaP cells, the DC50 is ≤ 0.02 µM and the Dmax is > 80%. For the same compound, in the data set on LNCaP cells, the IC50 is < 1 µM.
In the case of `N#Cc1ccc(O[C@H]2CC[C@H](NC(=O)c3ccc(N4CCC5(CC4)CC(CN4CCc6ccc7c(C8CCC(=O)NC8=O)noc7c6C4)C5)nn3)CC2)cc1Cl` (stereo partly drawn) [Compound 35], at AR in LNCaP cells, the DC50 was ≤ 0.02 µM and the Dmax was > 80%. In addition, in the data set on VCaP cells, the IC50 was < 0.1 µM. Further, the IC50 in the data set with LNCaP cells is < 1 µM.
Turning to `CN(c1ccc(C#N)c(Cl)c1)[C@H]1CC[C@H](NC(=O)c2ccc(N3CCN(CC4Cc5ccc6c(C7CCC(=O)NC7=O)noc6c5C4)CC3)cc2)CC1` (stereo partly drawn) [Compound 71], the DC50 at AR in VCaP cells is ≤ 0.001 µM.
Consider `N#Cc1ccc(O[C@H]2CC[C@H](NC(=O)c3ccc(N4CCC(N5CC(CN6Cc7ccc8c(C9CCC(=O)NC9=O)noc8c7C6)C5)CC4)cc3)CC2)cc1Cl` (stereo partly drawn) [Compound 80], for which the DC50 at AR in VCaP cells was ≤ 0.001 µM.
In the case of `N#Cc1ccc(O[C@H]2CC[C@H](NC(=O)c3ccc(N4CCC(N5CC(CN6CCc7ccc8c(C9CCC(=O)NC9=O)noc8c7C6)C5)CC4)cc3)CC2)cc1Cl` (stereo partly drawn) [Compound 81], the DC50 at AR in VCaP cells was ≤ 0.001 µM.
Consider `N#Cc1ccc(O[C@H]2CC[C@H](NC(=O)c3ccc(N4CCC(N5CC(CN6CCc7c(ccc8c(C9CCC(=O)NC9=O)noc78)C6)C5)CC4)cc3)CC2)cc1Cl` (stereo partly drawn) [Compound 82], for which the DC50 on AR in VCaP cells was ≤ 0.001 µM. Also, in the data set with LNCaP cells, the IC50 is < 1 µM.
`N#Cc1ccc(O[C@H]2CC[C@H](NC(=O)c3ccc(N4CCC(N5CCC(CN6Cc7ccc8c(C9CCC(=O)NC9=O)noc8c7C6)CC5)CC4)nn3)CC2)cc1Cl` (stereo partly drawn) [Compound 86]: the DC50 at AR in VCaP cells was ≤ 0.001 µM.
Consider `N#Cc1ccc(O[C@H]2CC[C@H](NC(=O)c3ccc(N4CCC(N5CCC(CN6CCc7ccc8c(C9CCC(=O)NC9=O)noc8c7C6)CC5)CC4)nn3)CC2)cc1Cl` (stereo partly drawn) [Compound 87], for which the DC50 at AR in VCaP cells is ≤ 0.001 µM.
As for `N#Cc1ccc(O[C@H]2CC[C@H](NC(=O)c3cnc(N4CCC(CN5CCc6ccc7c(C8CCC(=O)NC8=O)noc7c6CC5)CC4)nc3)CC2)cc1Cl` (stereo partly drawn) [Compound 122], on AR in LNCaP cells, the DC50 was ≤ 0.02 µM and the Dmax is > 80%. Also, the IC50 in the data set on VCaP cells (VCaP, 168 h) is < 0.1 µM. Further, the IC50 in the data set with LNCaP cells was < 1 µM.
On to `N#Cc1ccc(O[C@H]2CC[C@H](NC(=O)c3ncc(N4CCC(CN5CCc6c(ccc7c(C8CCC(=O)NC8=O)noc67)C5)CC4)cn3)CC2)cc1Cl` (stereo partly drawn) [Compound 146], for which the IC50 in the data set on VCaP cells (VCaP, 168 h) is < 1 µM; in the data set on LNCaP cells, < 1 µM.
